# Data from PubChem BioAssay AID1963972 (Molecular Pharmacology Branch, DTP, NCI, 2024).
# Tested on: 945468-187-T-J2-PDC spheroids viability
# Assay: Anticancer human tumor 945468-187-T-J2-PDC patient-derived rectal carcinoma cell line growth inhibition [PI3K]
# Conditions: spheroids with HUVEC and MSC; for IC50: curve of first compound; for viability, T/C: stronger effect = lower value
# Method in brief: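 Tumor cells were combined with HUVEC and MSCs into spheroids, then dosed with PI3K-inhibitor combinations over half-log ranges capped near clinical Cmax or 10 microM.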
# [1] = second compound 0.0316 µM, first compound 0.0316 µM
# [2] = second compound 0.0316 µM, first compound 0.1 µM
# [3] = second compound 0.0316 µM, first compound 0.316 µM
# [4] = second compound 0.0316 µM, first compound 1 µM
# [5] = second compound 0.0316 µM, first compound 3.16 µM
# [6] = second compound 0.0316 µM, first compound 10 µM
# [7] = second compound 0.1 µM, first compound 0.0316 µM
# [8] = second compound 0.1 µM, first compound 0.1 µM
# [9] = second compound 0.1 µM, first compound 0.316 µM
# [10] = second compound 0.1 µM, first compound 1 µM
# [11] = second compound 0.1 µM, first compound 3.16 µM
# [12] = second compound 0.1 µM, first compound 10 µM
# [13] = second compound 0.316 µM, first compound 0.0316 µM
# [14] = second compound 0.316 µM, first compound 0.1 µM
# [15] = second compound 0.316 µM, first compound 0.316 µM
# [16] = second compound 0.316 µM, first compound 1 µM
# [17] = second compound 0.316 µM, first compound 3.16 µM
# [18] = second compound 0.316 µM, first compound 10 µM
# [19] = second compound 1 µM, first compound 0.0316 µM
# [20] = second compound 1 µM, first compound 0.1 µM
# [21] = second compound 1 µM, first compound 0.316 µM
# [22] = second compound 1 µM, first compound 1 µM
# [23] = second compound 1 µM, first compound 3.16 µM
# [24] = second compound 1 µM, first compound 10 µM
# 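Also: spheroids exposed to compounds for seven days before reading.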
smiles,measurement,setting,value
CC1(C)CCC(Nc2ncc(C(F)(F)F)c(-c3c[nH]c4c(P(C)(C)=O)c(C#N)ccc34)n2)CN1 (centres undefined) + Cc1nc(NC(=O)N2CCCC2C(N)=O)sc1-c1ccnc(C(C)(C)C(F)(F)F)c1,IC50,second compound 0.0316 µM,2.65 µM
same,IC50,second compound 0.1 µM,2.14 µM
same,IC50,second compound 0.316 µM,> 10 µM
same,IC50,second compound 1 µM,> 10 µM
same,IC50,second compound 3.16 µM,1.98 µM
same,IC50,second compound 10 µM,2.32 µM
same,"viability, T/C",[1],95.8%
same,"viability, T/C",[2],104%
same,"viability, T/C",[3],78.4%
same,"viability, T/C",[4],62.9%
same,"viability, T/C",[5],47%
same,"viability, T/C",[6],45.3%
same,"viability, T/C",[7],87%
same,"viability, T/C",[8],85.4%
same,"viability, T/C",[9],93.2%
same,"viability, T/C",[10],55.2%
same,"viability, T/C",[11],53.1%
same,"viability, T/C",[12],41.6%
same,"viability, T/C",[13],87.8%
same,"viability, T/C",[14],130%
same,"viability, T/C",[15],80.3%
same,"viability, T/C",[16],59.2%
same,"viability, T/C",[17],48.1%
same,"viability, T/C",[18],45.5%
same,"viability, T/C",[19],89.8%
same,"viability, T/C",[20],99.3%
same,"viability, T/C",[21],91.4%
same,"viability, T/C",[22],53.8%
same,"viability, T/C",[23],48.5%
same,"viability, T/C",[24],55.3%
same,"viability, T/C","second compound 3.16 µM, first compound 0.0316 µM",99.8%
same,"viability, T/C","second compound 3.16 µM, first compound 0.1 µM",106%
same,"viability, T/C","second compound 3.16 µM, first compound 0.316 µM",73.7%
same,"viability, T/C","second compound 3.16 µM, first compound 1 µM",57%
same,"viability, T/C","second compound 3.16 µM, first compound 3.16 µM",50.1%
same,"viability, T/C","second compound 3.16 µM, first compound 10 µM",43.1%
same,"viability, T/C","second compound 10 µM, first compound 0.0316 µM",81.8%
same,"viability, T/C","second compound 10 µM, first compound 0.1 µM",77.5%
same,"viability, T/C","second compound 10 µM, first compound 0.316 µM",48.9%
same,"viability, T/C","second compound 10 µM, first compound 1 µM",53.7%
same,"viability, T/C","second compound 10 µM, first compound 3.16 µM",60.2%
same,"viability, T/C","second compound 10 µM, first compound 10 µM",39.4%
C=CC(=O)N1CCN(c2nc(=O)n(-c3c(C)ccnc3C(C)C)c3nc(-c4c(O)cccc4F)c(F)cc23)C(C)C1 (centres undefined) + CC(Nc1ccc2c(c1)OCCn1cc(N3C(=O)OCC3C(F)F)nc1-2)C(N)=O,IC50,second compound 0.00316 µM,> 10 µM
same,IC50,second compound 0.01 µM,> 10 µM
same,IC50,second compound 0.0316 µM,> 10 µM
same,IC50,second compound 0.1 µM,> 10 µM
same,IC50,second compound 0.316 µM,> 10 µM
same,IC50,second compound 1 µM,> 10 µM
same,"viability, T/C","second compound 0.00316 µM, first compound 0.0316 µM",117%
same,"viability, T/C","second compound 0.00316 µM, first compound 0.1 µM",108%
same,"viability, T/C","second compound 0.00316 µM, first compound 0.316 µM",114%
same,"viability, T/C","second compound 0.00316 µM, first compound 1 µM",85.1%
same,"viability, T/C","second compound 0.00316 µM, first compound 3.16 µM",101%
same,"viability, T/C","second compound 0.00316 µM, first compound 10 µM",101%
same,"viability, T/C","second compound 0.01 µM, first compound 0.0316 µM",166%
same,"viability, T/C","second compound 0.01 µM, first compound 0.1 µM",98%
same,"viability, T/C","second compound 0.01 µM, first compound 0.316 µM",101%
same,"viability, T/C","second compound 0.01 µM, first compound 1 µM",120%
same,"viability, T/C","second compound 0.01 µM, first compound 3.16 µM",111%
same,"viability, T/C","second compound 0.01 µM, first compound 10 µM",123%
same,"viability, T/C",[1],124%
same,"viability, T/C",[2],117%
same,"viability, T/C",[3],103%
same,"viability, T/C",[4],116%
same,"viability, T/C",[5],91.5%
same,"viability, T/C",[6],83.6%
same,"viability, T/C",[7],127%
same,"viability, T/C",[8],88.1%
same,"viability, T/C",[9],87.7%
same,"viability, T/C",[10],98.4%
same,"viability, T/C",[11],96.3%
same,"viability, T/C",[12],111%
same,"viability, T/C",[13],101%
same,"viability, T/C",[14],101%
same,"viability, T/C",[15],79.7%
same,"viability, T/C",[16],110%
same,"viability, T/C",[17],95.3%
same,"viability, T/C",[18],80.1%
same,"viability, T/C",[19],89.2%
same,"viability, T/C",[20],98.1%
same,"viability, T/C",[21],81.8%
same,"viability, T/C",[22],83.4%
same,"viability, T/C",[23],81.9%
same,"viability, T/C",[24],83.7%
